Experimental findings from US10328053B2 (Gilead Sciences, Inc., priority 2016, dated 2019) are described below.

The data set in a line: Hepatic Stability Assay (in vitro half-life method). It is filed as in vitro ADME. Further details: dose or concentration left out as unconfirmed. Conditions: pooled cryopreserved hepatocytes, 37° C., 1×10^6 cells/mL, 0-6 hours, LC-MS/MS, 39.5 hours is the maximum detectable half life, read-out: t½ (converted). How it is done: Hepatic Stability Assay The metabolic stability of certain compounds disclosed herein was assessed in vitro in pooled cryopreserved hepatocytes using the in vitro half-life method. Incubations were at 37° C. and final concentrations in the incubations were 1×10^6 cells/mL and […] test concentration of the compound. Aliquots were sequentially removed after 0, 1, 3 and 6 hours and analyzed by LC-MS/MS. In vitro half-life was determined by measuring the rate of disappearance of the compound and then scaled to predicted hepatic clearance using the well-stirred model. […] As such, compounds having a value of 39.5 may have a half live that exceeds 39.5 hours.

For the molecule `Cc1c(C(=O)C(=O)NC2(C(N)=O)CC(F)(F)C2)c2n(c1C(=O)Nc1ccc(F)c(F)c1)CCC2` [Example 121, 7-(2-((1-carbamoyl-3,3-difluorocyclobutyl)amino)-2-oxoacetyl)-N-(3,4-difluorophenyl)-6-methyl-2,3-dihydro-1H-pyrrolizine-5-carboxamide], the half-life is 19.8 h.

For `Cc1nnc(C2(NC(=O)C(=O)c3c(C)c(C(=O)Nc4ccc(F)c(Cl)c4)n4c3CCC4)CC2)[nH]1` [Example 51, N-(3-chloro-4-fluorophenyl)-6-methyl-7-(2-((1-(5-methyl-4H-1,2,4-triazol-3-yl)cyclopropyl)amino)-2-oxoacetyl)-2,3-dihydro-1H-pyrrolizine-5-carboxamide], the half-life is 9.5 h. With `Cc1c(C(=O)C(=O)NC2(c3cn(C)nn3)CC2)c2n(c1C(=O)Nc1ccc(F)c(Cl)c1)CCC2` [Example 98, N-(3-chloro-4-fluorophenyl)-6-methyl-7-(2-((1-(1-methyl-1H-1,2,3-triazol-4-yl)cyclopropyl)amino)-2-oxoacetyl)-2,3-dihydro-1H-pyrrolizine-5-carboxamide], the half-life is 14.8 h. On to `Cc1nnc(C2(NC(=O)C(=O)c3c(C)c(C(=O)Nc4ccc(F)c(Cl)c4)n4c3CCC4)CC2)o1` [Example 64, N-(3-chloro-4-fluorophenyl)-6-methyl-7-(2-((1-(5-methyl-1,3,4-oxadiazol-2-yl)cyclopropyl)amino)-2-oxoacetyl)-2,3-dihydro-1H-pyrrolizine-5-carboxamide], for which the half-life was 13.2 h. Take `Cc1c(C(=O)C(=O)NC2(c3c[nH]nn3)CC(F)(F)C2)c2n(c1C(=O)Nc1ccnc(C(F)F)c1F)CCC2` [Example 59, 7-(2-((3,3-difluoro-1-(1H-1,2,3-triazol-4-yl)cyclobutyl)amino)-2-oxoacetyl)-N-(2-(difluoromethyl)-3-fluoropyridin-4-yl)-6-methyl-2,3-dihydro-1H-pyrrolizine-5-carboxamide]: the half-life is 22.3 h.

In the case of `CNC(=O)C1(NC(=O)C(=O)c2c(C)c(C(=O)Nc3ccc(F)c(Cl)c3)n3c2C[C@H]2C[C@H]23)CC(F)(F)C1` [Example 5, (1aR,6aR)—N-(3-chloro-4-fluorophenyl)-5-(2-((3,3-difluoro-1-(methylcarbamoyl)cyclobutyl)amino)-2-oxoacetyl)-4-methyl-1,1a,6,6a-tetrahydrocyclopropa[b]pyrrolizine-3-carboxamide], the half-life is 5.2 h.

In the case of `CNC(=O)C1(NC(=O)C(=O)c2c(C)c(C(=O)Nc3ccc(F)c(Cl)c3)n3c2C[C@@H]2C[C@@H]23)CC(F)(F)C1` [Example 4, (1aS,6aS)—N-(3-chloro-4-fluorophenyl)-5-(2-((3,3-difluoro-1 (methylcarbamoyl)cyclobutyl)amino)-2-oxoacetyl)-4-methyl-1,1a,6,6a-tetrahydrocyclopropa[b]pyrrolizine-3-carboxamide], the half-life is 7.3 h.

Consider `CNC(=O)C1(NC(=O)C(=O)c2c(C)c(C(=O)Nc3ccc(F)c(Cl)c3)n3c2CCC3(C)C)CC(F)(F)C1` [Example 15, N-(3-chloro-4-fluorophenyl)-7-(2-((3,3-difluoro-1-(methylcarbamoyl)cyclobutyl)amino)-2-oxoacetyl)-3,3,6-trimethyl-2,3-dihydro-1H-pyrrolizine-5-carboxamide], for which the half-life was 0.5 h. Consider `CNC(=O)C1(NC(=O)C(=O)c2c(C)c(C(=O)Nc3ccc(F)c(F)c3)n3c2C[C@H]2C[C@H]23)CC(F)(F)C1` [Example 96, (1aR,6aR)-5-(2-((3,3-difluoro-1-(methylcarbamoyl)cyclobutyl)amino)-2-oxoacetyl)-N-(3,4-difluorophenyl)-4-methyl-1,1a,6,6a-tetrahydrocyclopropa[b]pyrrolizine-3-carboxamide], for which the half-life is 22.6 h.

Turning to `Cc1c(C(=O)C(=O)NC2(c3c[nH]nn3)CC(F)(F)C2)c2n(c1C(=O)Nc1ccnc(C(F)F)c1)[C@@H]1C[C@@H]1C2` [Example 78, (1aR,6aR)-5-(2-((3,3-difluoro-1-(1H-1,2,3-triazol-4-yl)cyclobutyl)amino)-2-oxoacetyl)-N-(2-(difluoromethyl)pyridin-4-yl)-4-methyl-1,1a,6,6a-tetrahydrocyclopropa[b]pyrrolizine-3-carboxamide], the half-life was 4.8 h. With `Cc1c(C(=O)C(=O)NC2(c3nncs3)CC2)c2n(c1C(=O)Nc1ccnc(C(F)F)c1)[C@@H]1C[C@@H]1C2` [Example 62, (1aR,6aR)-5-(2-((1-(1,3,4-thiadiazol-2-yl)cyclopropyl)amino)-2-oxoacetyl)-N-(2-(difluoromethyl)pyridin-4-yl)-4-methyl-1,1a,6,6a-tetrahydrocyclopropa[b]pyrrolizine-3-carboxamide] the figure was 5.3 h; with `Cc1c(C(=O)C(=O)NC2(c3nncs3)CC2)c2n(c1C(=O)Nc1ccc(F)c(F)c1)[C@@H]1C[C@@H]1C2` [Example 61, (1aR,6aR)-5-(2-((1-(1,3,4-thiadiazol-2-yl)cyclopropyl)amino)-2-oxoacetyl)-N-(3,4-difluorophenyl)-4-methyl-1,1a,6,6a-tetrahydrocyclopropa[b]pyrrolizine-3-carboxamide], 5.4 h; with `Cc1c(C(=O)C(=O)NC2(c3c[nH]nn3)CC2)c2n(c1C(=O)Nc1ccc(F)c(C#N)c1)[C@@H]1C[C@@H]1C2` [Example 79, (1aR,6aR)-5-(2-((1-(1H-1,2,3-triazol-4-yl)cyclopropyl)amino)-2-oxoacetyl)-N-(3-cyano-4-fluorophenyl)-4-methyl-1,1a,6,6a-tetrahydrocyclopropa[b]pyrrolizine-3-carboxamide], 14.9 h. Turning to `Cc1c(C(=O)C(=O)N[C@H](C)C(F)(F)F)c2n(c1C(=O)Nc1ccc(F)c(Cl)c1)C(C)CC2` (single isomer, unassigned) [Example 24], the half-life was 5 h. With `Cc1c(C(=O)C(=O)N[C@H](C)C(F)(F)F)c2n(c1C(=O)Nc1ccc(F)c(Cl)c1)C(C)CC2` (mixture of isomers) [Example 20, N-(3-chloro-4-fluorophenyl)-3,6-dimethyl-7-(2-oxo-2-(((R)-1,1,1-trifluoropropan-2-yl)amino)acetyl)-2,3-dihydro-1H-pyrrolizine-5-carboxamide] the figure was 14.3 h. With `Cc1c(C(=O)C(=O)NC2(C)C[S+]([O-])C2)c2n(c1C(=O)Nc1ccc(F)c(F)c1)CCC2` (stereo not shown) [Example 145, N-(3,4-difluorophenyl)-6-methyl-7-(2-((3-methyl-1-oxidothietan-3-yl)amino)-2-oxoacetyl)-2,3-dihydro-1H-pyrrolizine-5-carboxamide] the figure was 9.7 h; with `Cc1c(C(=O)C(=O)NC2(c3nnn(C)n3)CC2)c2n(c1C(=O)Nc1ccc(F)c(Cl)c1)CCC2` [Example 50, N-(3-chloro-4-fluorophenyl)-6-methyl-7-(2-((1-(2-methyl-2H-tetrazol-5-yl)cyclopropyl)amino)-2-oxoacetyl)-2,3-dihydro-1H-pyrrolizine-5-carboxamide], 15.3 h. Consider `Cc1c(C(=O)C(=O)NC2(c3c[nH]nn3)CC2)c2n(c1C(=O)Nc1cccc(F)c1)CCC2` [Example 69, 7-(2-((1-(1H-1,2,3-triazol-4-yl)cyclopropyl)amino)-2-oxoacetyl)-N-(3-fluorophenyl)-6-methyl-2,3-dihydro-1H-pyrrolizine-5-carboxamide], for which the half-life was 17 h. Regarding `Cc1c(C(=O)C(=O)NC2(C(F)(F)F)COC2)c2n(c1C(=O)Nc1ccnc(C(F)F)c1)[C@@H]1C[C@@H]1C2` [Example 119, (1aR,6aR)—N-(2-(difluoromethyl)pyridin-4-yl)-4-methyl-5-(2-oxo-2-((3-(trifluoromethyl)oxetan-3-yl)amino)acetyl)-1,1a,6,6a-tetrahydrocyclopropa[b]pyrrolizine-3-carboxamide], the half-life is 11 h.
